Assay results from patent US20250326743A1, “CRYSTAL FORMS OF TRIAZINE DIONE DERIVATIVE AND PREPARATION METHOD THEREFOR” (Jiangsu Hengrui Pharmaceuticals Co., Ltd., priority 2022, published 2025).

Key:
[1] = Toxicokinetic evaluation of 14 days of repeated intragastric administration to SD rats; type: in vivo
Procedure: SD rats were used as the test animals. After intragastric administration of the test compounds to the SD rats, the concentrations of the original forms of the compounds in the plasma and the administration solutions were measured by the LC/MS/MS method at different time points.
Twenty-four SD rats, with an equal number of males and females, were evenly divided into 6 groups, each consisting of 4 rats with an equal number of males and females. The rats were provided by Vital River Laboratory Animal Technology Co., Ltd.
A certain amount of compound MYK-461 was weighed out, and 0.5% MC was added to prepare a colorless clear solution.
Compound MYK-461 was administered at doses of 0.5 mg/kg, 1.5 mg/kg, and 3 mg/kg, each with a volume of 10 mL/kg.
0.2-mL blood samples were collected from the orbit at 0.5 h, 1.0 h, 2.0 h, 4.0 h, 8.0 h, and 24.0 h after administration on day 1, and 0.2-mL blood samples were collected from the orbit before administration and at 0.5 h, 1.0 h, 2.0 h, 4.0 h, 8.0 h, and 24.0 h after administration on day 7 and day 14. The blood samples were placed into EDTA-K2 anticoagulation tubes and centrifuged at 10,000 rpm for 1 min (4° C.), and the plasma was isolated within 1 h and stored at −20° C. before analysis. The procedure starting from the blood collection to the centrifugation was performed under ice-bath conditions. Two hours after administration, food was provided. […]

myosin ATPase = target: T1, myosin ATPase (Bos taurus, UniProt Q9BE39); conditions: biological evaluation in Application No. WO2022105852; cited from earlier work
T1 construct: 0.07 μM myosin motor protein SI fragment; purchased Cytoskeleton CS-MYS03 (myosin S1); AD99 (actin)
T1 sequence (Q9BE39 85-778 limits assumed): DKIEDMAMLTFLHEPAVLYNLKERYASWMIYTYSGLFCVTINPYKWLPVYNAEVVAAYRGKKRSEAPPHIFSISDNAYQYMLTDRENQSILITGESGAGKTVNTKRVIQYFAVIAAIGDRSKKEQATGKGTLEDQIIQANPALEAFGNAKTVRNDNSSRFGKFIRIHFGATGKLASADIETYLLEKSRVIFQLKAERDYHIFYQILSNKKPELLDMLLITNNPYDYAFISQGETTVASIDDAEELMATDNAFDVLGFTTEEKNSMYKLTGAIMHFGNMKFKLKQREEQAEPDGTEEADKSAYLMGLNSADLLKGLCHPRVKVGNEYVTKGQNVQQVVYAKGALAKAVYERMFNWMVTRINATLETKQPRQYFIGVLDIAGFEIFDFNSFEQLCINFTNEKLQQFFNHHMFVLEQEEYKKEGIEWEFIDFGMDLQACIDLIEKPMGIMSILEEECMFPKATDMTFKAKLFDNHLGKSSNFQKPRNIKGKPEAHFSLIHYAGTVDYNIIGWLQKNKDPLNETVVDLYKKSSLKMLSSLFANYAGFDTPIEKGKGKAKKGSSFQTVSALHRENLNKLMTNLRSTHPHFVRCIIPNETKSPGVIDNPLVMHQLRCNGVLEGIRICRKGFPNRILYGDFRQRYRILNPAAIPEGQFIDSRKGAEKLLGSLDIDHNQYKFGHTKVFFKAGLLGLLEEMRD
T1 sequence (P85100 whole entry partner, the tested form may be a part): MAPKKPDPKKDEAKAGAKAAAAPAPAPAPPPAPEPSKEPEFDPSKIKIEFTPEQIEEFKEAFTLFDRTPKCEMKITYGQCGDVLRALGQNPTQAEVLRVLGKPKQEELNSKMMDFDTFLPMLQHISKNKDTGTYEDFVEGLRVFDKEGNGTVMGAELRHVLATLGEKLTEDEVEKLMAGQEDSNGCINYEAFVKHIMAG

[2] = DVS (dynamic vapor sorption) hygroscopicity; type: physicochemical; conditions: for hygroscopic weight gain: DVS
Procedure: DVS refers to dynamic vapor sorption: The measurement was performed using SMS DVS Advantage; at 25° C., the humidity was changed as follows: 50%-95%-0%-95%-50%, in steps of 10% (5% for the last step) (specific humidity ranges are shown in corresponding patterns, and those listed here were used in most cases); the criterion was dm/dt being not greater than 0.002%.

[3] = Influencing factor stability study (30 days, open flasks); type: physicochemical; conditions: for physical and chemical stability (conclusion): light exposure, 40° C. and 60° C., 75% RH and 92.5% RH
[4] = Long-term/accelerated stability study (6 months); type: physicochemical; conditions: for physical and chemical stability (conclusion): 25° C. with 60% RH and 40° C. with 75% RH
[5] = normal storage conditions, 60% RH
[6] = Light exposure (4500 Lux), 5 days
[7] = Light exposure (4500 Lux), 10 days
[8] = Light exposure (4500 Lux), 30 days

Cc1ccc(F)c([C@H](C)Nc2nc(=O)n(C3CCOCC3)c(=O)[nH]2)c1 [(S)-6-((1-(2-Fluoro-5-methylphenyl)ethyl)amino)-3-(tetrahydro-2H-pyran-4-yl)-1,3,5-triazine-2,4(1H,3H)-dione]
accumulation in the SD rats [1]: did not cause significant accumulation | inhibitory effect on myosin ATPase (myosin ATPase): very good inhibitory effect

CC(C)n1c(=O)cc(N[C@@H](C)c2ccccc2)[nH]c1=O [MYK-461, reference compound]
accumulation in the SD rats [1]: caused significant accumulation

Cc1ccc(F)c([C@H](C)Nc2nc(=O)n(C3CCOCC3)c(=O)[nH]2)c1 [crystal form A, (S)-6-((1-(2-fluoro-5-methylphenyl)ethyl)amino)-3-(tetrahydro-2H-pyran-4-yl)-1,3,5-triazine-2,4(1H,3H)-dione]
hygroscopic weight gain ([2]; accelerated conditions, 70% RH): about 0.15% | hygroscopic weight gain ([2]; extreme conditions, 90% RH): about 0.24% | hygroscopic weight gain [2, 5]: about 0.12% | crystal form after DVS testing [2]: did not change | Color and state ([3]; 40° C., 5 days): Off-white solid | Crystal form ([3]; 40° C., 5 days): No change | Purity % ([3]; 40° C., 5 days): 99.7% | Color and state ([3]; 40° C., 10 days): Off-white solid | Crystal form ([3]; 40° C., 10 days): No change | Purity % ([3]; 40° C., 10 days): 99.7% | Color and state ([3]; 40° C., 30 days): Off-white solid | Crystal form ([3]; 40° C., 30 days): No change | Purity % ([3]; 40° C., 30 days): 99.7% | Color and state ([3]; 60° C., 5 days): Off-white solid | Crystal form ([3]; 60° C., 5 days): No change | Purity % ([3]; 60° C., 5 days): 99.7% | Color and state ([3]; 60° C., 10 days): Off-white solid | Crystal form ([3]; 60° C., 10 days): No change | Purity % ([3]; 60° C., 10 days): 99.7% | Color and state ([3]; 60° C., 30 days): Off-white solid | Crystal form ([3]; 60° C., 30 days): No change | Purity % ([3]; 60° C., 30 days): 99.7% | Color and state ([3]; 75% RH, 5 days): Off-white solid | Crystal form ([3]; 75% RH, 5 days): No change | Purity % ([3]; 75% RH, 5 days): 99.7% | Color and state ([3]; 75% RH, 10 days): Off-white solid | Crystal form ([3]; 75% RH, 10 days): No change | Purity % ([3]; 75% RH, 10 days): 99.7% | Color and state ([3]; 75% RH, 30 days): Off-white solid | Crystal form ([3]; 75% RH, 30 days): No change | Purity % ([3]; 75% RH, 30 days): 99.7% | Color and state ([3]; 92.5% RH, 5 days): Off-white solid | Crystal form ([3]; 92.5% RH, 5 days): No change | Purity % ([3]; 92.5% RH, 5 days): 99.7% | Color and state ([3]; 92.5% RH, 10 days): Off-white solid | Crystal form ([3]; 92.5% RH, 10 days): No change | Purity % ([3]; 92.5% RH, 10 days): 99.7% | Color and state ([3]; 92.5% RH, 30 days): Off-white solid | Crystal form ([3]; 92.5% RH, 30 days): No change | Purity % ([3]; 92.5% RH, 30 days): 99.7% | Color and state ([3]; Initial, 0 days): Off-white solid | Purity % ([3]; Initial, 0 days): 99.7% | Color and state [3, 6]: Off-white solid | Crystal form [3, 6]: No change | Purity % [3, 6]: 99.7% | Color and state [3, 7]: Off-white solid | Crystal form [3, 7]: No change | Purity % [3, 7]: 99.7% | Color and state [3, 8]: Off-white solid | Crystal form [3, 8]: No change | Purity % [3, 8]: 99.7% | physical and chemical stability (conclusion) ([3]; 30 days): both good physical stability and good chemical stability | physical and chemical stability (conclusion) ([4]; 6 months): both good physical stability and good chemical stability | Crystal form ([4]; 25° C./60% RH, 1 month): No change | Purity % ([4]; 25° C./60% RH, 1 month): 99.7% | Crystal form ([4]; 25° C./60% RH, 2 months): No change | Purity % ([4]; 25° C./60% RH, 2 months): 99.7% | Crystal form ([4]; 25° C./60% RH, 3 months): No change | Purity % ([4]; 25° C./60% RH, 3 months): 99.7% | Crystal form ([4]; 25° C./60% RH, 6 months): No change | Purity % ([4]; 25° C./60% RH, 6 months): 99.7% | Crystal form ([4]; 40° C./75% RH, 1 month): No change | Purity % ([4]; 40° C./75% RH, 1 month): 99.7% | Crystal form ([4]; 40° C./75% RH, 2 months): No change | Purity % ([4]; 40° C./75% RH, 2 months): 99.7% | Crystal form ([4]; 40° C./75% RH, 3 months): No change | Purity % ([4]; 40° C./75% RH, 3 months): 99.7% | Crystal form ([4]; 40° C./75% RH, 6 months): No change | Purity % ([4]; 40° C./75% RH, 6 months): 99.8% | Purity % ([4]; Initial): 99.7%

Cc1ccc(F)c([C@H](C)Nc2nc(=O)n(C3CCOCC3)c(=O)[nH]2)c1 [crystal form B, (S)-6-((1-(2-fluoro-5-methylphenyl)ethyl)amino)-3-(tetrahydro-2H-pyran-4-yl)-1,3,5-triazine-2,4(1H,3H)-dione]
hygroscopic weight gain ([2]; accelerated conditions, 70% RH): about 0.298% | hygroscopic weight gain ([2]; extreme conditions, 90% RH): about 0.418% | hygroscopic weight gain [2, 5]: about 0.242% | crystal form after DVS testing [2]: did not change | Color and state ([3]; 40° C., 5 days): Off-white solid | Crystal form ([3]; 40° C., 5 days): No change | Purity % ([3]; 40° C., 5 days): 99.8% | Color and state ([3]; 40° C., 10 days): Off-white solid | Crystal form ([3]; 40° C., 10 days): No change | Purity % ([3]; 40° C., 10 days): 99.9% | Color and state ([3]; 40° C., 30 days): Off-white solid | Crystal form ([3]; 40° C., 30 days): No change | Purity % ([3]; 40° C., 30 days): 99.9% | Color and state ([3]; 60° C., 5 days): Off-white solid | Crystal form ([3]; 60° C., 5 days): No change | Purity % ([3]; 60° C., 5 days): 99.9% | Color and state ([3]; 60° C., 10 days): Off-white solid | Crystal form ([3]; 60° C., 10 days): No change | Purity % ([3]; 60° C., 10 days): 99.9% | Color and state ([3]; 60° C., 30 days): Off-white solid | Crystal form ([3]; 60° C., 30 days): No change | Purity % ([3]; 60° C., 30 days): 99.9% | Color and state ([3]; 75% RH, 5 days): Off-white solid | Crystal form ([3]; 75% RH, 5 days): No change | Purity % ([3]; 75% RH, 5 days): 99.8% | Color and state ([3]; 75% RH, 10 days): Off-white solid | Crystal form ([3]; 75% RH, 10 days): No change | Purity % ([3]; 75% RH, 10 days): 99.8% | Color and state ([3]; 75% RH, 30 days): Off-white solid | Crystal form ([3]; 75% RH, 30 days): No change | Purity % ([3]; 75% RH, 30 days): 99.8% | Color and state ([3]; 92.5% RH, 5 days): Off-white solid | Crystal form ([3]; 92.5% RH, 5 days): No change | Purity % ([3]; 92.5% RH, 5 days): 99.9% | Color and state ([3]; 92.5% RH, 10 days): Off-white solid | Crystal form ([3]; 92.5% RH, 10 days): No change | Purity % ([3]; 92.5% RH, 10 days): 99.9% | Color and state ([3]; 92.5% RH, 30 days): Off-white solid | Crystal form ([3]; 92.5% RH, 30 days): No change | Purity % ([3]; 92.5% RH, 30 days): 99.9% | Color and state ([3]; Initial, 0 days): Off-white solid | Purity % ([3]; Initial, 0 days): 99.9% | Color and state [3, 6]: Off-white solid | Crystal form [3, 6]: No change | Purity % [3, 6]: 99.9% | Color and state [3, 7]: Off-white solid | Crystal form [3, 7]: No change | Purity % [3, 7]: 99.9% | Color and state [3, 8]: Off-white solid | Crystal form [3, 8]: No change | Purity % [3, 8]: 99.9% | physical and chemical stability (conclusion) ([3]; 30 days): both good physical stability and good chemical stability | physical and chemical stability (conclusion) ([4]; 6 months): both good physical stability and good chemical stability | Crystal form ([4]; 25° C./60% RH, 1 month): No change | Purity % ([4]; 25° C./60% RH, 1 month): 99.8% | Crystal form ([4]; 25° C./60% RH, 2 months): No change | Purity % ([4]; 25° C./60% RH, 2 months): 99.8% | Crystal form ([4]; 25° C./60% RH, 3 months): No change | Purity % ([4]; 25° C./60% RH, 3 months): 99.9% | Crystal form ([4]; 25° C./60% RH, 6 months): No change | Purity % ([4]; 25° C./60% RH, 6 months): 99.9% | Crystal form ([4]; 40° C./75% RH, 1 month): No change | Purity % ([4]; 40° C./75% RH, 1 month): 99.9% | Crystal form ([4]; 40° C./75% RH, 2 months): No change | Purity % ([4]; 40° C./75% RH, 2 months): 99.9% | Crystal form ([4]; 40° C./75% RH, 3 months): No change | Purity % ([4]; 40° C./75% RH, 3 months): 99.9% | Crystal form ([4]; 40° C./75% RH, 6 months): No change | Purity % ([4]; 40° C./75% RH, 6 months): 99.9% | Purity % ([4]; Initial): 99.9%
